Results as given in paper PMC11247486, “Improving the In Vivo Stability of [^52Mn]Mn(II) Complexes with 18-Membered Macrocyclic Chelators for PET Imaging” (Journal of Medicinal Chemistry, 2024).

Key:
[1] = Transmetalation (dissociation) kinetics of the Mn(II) complexes with Cu2+; format: physicochemical
Procedure: There is a wide consensus among the coordination chemistry community that kinetic inertness is more important for the safe use of metal complexes for imaging applications than thermodynamic stability.[8],[49],[50] Thus, we conducted a detailed investigation of the transmetalation kinetics of the Mn-PYAN and Mn-CHXPYAN complexes, by following their exchange reactions with Cu^2+ in the pH range of 2.5–4.5 (eq 3). [drawing 3] 3
All reactions were carried out in the presence of a large excess of Cu^2+ in order to guarantee the pseudo-first-order kinetic conditions. The transmetalation of Mn-PYAN in the pH range ∼2.0–4.5 is very fast, and thus the rates of the reactions were measured using the stopped-flow technique. Conversely, the exchange reactions of the Mn-CHXPYAN complex are slow and could be studied by using conventional methods. The transmetalation reactions of Mn-PYAN and Mn-CHXPYAN were monitored by following the formation of the corresponding Cu(II) complexes at 295 nm.
The kd values increase upon increase in [H^+] and are independent of the concentration of Cu^2+ as it was found for Mn-PCTA, Mn-PC3AM, and Mn-bispidine complexes.[49],[51] […] The increase in the kd values with increasing H^+ concentration can be interpreted in terms of the extremely slow spontaneous (k0, eq 4) and the proton-assisted (k*[Mn(HL), eq 6) dissociation of Mn(II) complexes. The saturation behavior of the plots of kd versus [H^+] (Figure 5) is characteristic for the equilibrium formation and the accumulation of the *[Mn(HL)] intermediate characterized by the *KH protonation constant (eq 5). The analysis of the rate constants obtained for Mn-CHXPYAN indicates a second-order dependence of kd on [H^+], which can be explained by the proton-assisted dissociation of the *[Mn(HL)] intermediate (k^H*[Mn(HL)], eq 7). [drawing 4] 4 [drawing 5] 5 [drawing 6] 6 [drawing 7] 7
In the presence of excess of the exchanging ion, the transmetalation can be treated as a pseudo-first-order process, and the rate of reactions can be expressed with eq 8, where kd is a pseudo-first-order rate constant and [MnL]t is the total concentration of the complex. [drawing 8] 8
Through consideration of all the possible pathways, the rate of the transmetalation of Mn-PYAN and Mn-CHXPYAN with Cu^2+ can be expressed by eq 9 [drawing 9] 9 Considering the total concentration of the Mn(II) complex ([MnL]t = [MnL] + [*Mn(HL)], as well as the equation defining the protonation constant for the formation of the *[Mn(HL)] intermediate (eq 5) and eq 8, the pseudo-first-order rate constant can be expressed as follows [drawing 10] 10 where k1 = k*[Mn(HL)] × *KH and k2 = k^H*[Mn(HL)] × *KH. The rate and protonation constants characterizing the transmetalation of Mn-PYAN and Mn-CHXPYAN with Cu^2+ have been calculated by fitting the kd values presented in Figure 5 to eq 10 and the values obtained are compared with the corresponding values of Mn-DOTA, Mn-DO3A, Mn-PCTA, Mn-PC3AM^H, and Mn-bispidine in Table 3.
Rates of the metal exchange reactions of Mn-PYAN and Mn-CHXPYAN with Cu^2+ were measured by spectrophotometry by following the formation of the related Cu(II) complexes at 295 nm with an Applied Photophysics DX-17MV stopped-flow instrument and PerkinElmer Lambda 365 UV–vis spectrophotometer using 1.0 cm cells, respectively. The concentration of Mn-PYAN and Mn-CHXPYAN was 1.0 × 10^–4 M, whereas the concentration of Cu^2+ was 10 and 20 times higher in order to guarantee pseudo-first-order conditions. The temperature was maintained at 25 °C and the ionic strength of the solutions was kept constant with 0.15 M NaCl. The exchange rates were studied in the pH range of ca. 2.0–4.5. To keep the pH values constant, monochloroacetic acid (pH range 2.0–3.3), 1,4-dimethylpiperazine (pH range 3.3–4.1), and N-methylpiperazine (pH range 4.1–4.5) buffers were used (0.01 M). […]

[2] = protonation constant of the complex, KMnLH = [MnHL]/[MnL] × [H^+]; cited from earlier work

Q: Which “acid-catalyzed dissociation rate kd” value ([1]; pH = 5.5, 25 °C) does the source give for `[Mn+2].c1cc2nc(c1)CN[C@@H]1CCCC[C@H]1NCc1cccc(n1)CN[C@@H]1CCCC[C@H]1NC2` [Mn-CHXPYAN] here?
A: 7.9 × 10^–7 s^–1

Q: What about the t1/2 ([1]; pH = 5.5, 25 °C) of the same molecule?
A: 240 h

Q: What about the “k1 lower than that determined for Mn-PYAN” value ([1]; ratio of k1 values) of the same molecule?
A: 3600 times

Q: Which “t1/2 at pH = 7.4” value ([1]; dissociation half-life of the Mn(II) complex, 0.15 M NaCl, 25 °C) does the source give for `[Mn+2].c1cc2nc(c1)CNCCNCc1cccc(n1)CNCCNC2` [Mn-PYAN] here?
A: 5.85 h

Q: What about the “log KMnLH” value [2] of the same molecule?
A: 5.19
